For one test, the target named is T1, integrin α4β1 (Homo sapiens, UniProt P05556+P13612).
T1 construct: cell strain Jurkat (ATCC TIB-152) of human T cells, known to express integrin α4β1; host or cells: Jurkat (human T cell line)
Kind of test: VCAM antagonist activity (VCAM-1/α4β1 binding assay). As to conditions: Jurkat cells binding to VCAM-1; read-out: VCAM antagonistic activity (IC50) α4β1. Format: cell-based. An outline of the steps: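 Plates coated overnight at 4° C with recombinant human VCAM-1 (500 ng/ml, pH 9.6) and blocked. Calcein-AM-labelled Jurkat cells (α4β1) added with compound in HEPES/DMEM/0.1% BSA, 30 min at room temperature; unbound cells shaken off, bound fluorescence read at 485/535 nm. IC50 from binding relative to compound-free wells.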

The target in a further test is T2, integrin α4β7 (Homo sapiens, UniProt P13612+P26010).
T2 construct: lymphoma cell strain RPMI-8866 of human B cells, known to express integrin α4β7; endogenous in cells; host or cells: RPMI-8866 (human B lymphoma cell line)
T2 sequence (P13612 34-1032): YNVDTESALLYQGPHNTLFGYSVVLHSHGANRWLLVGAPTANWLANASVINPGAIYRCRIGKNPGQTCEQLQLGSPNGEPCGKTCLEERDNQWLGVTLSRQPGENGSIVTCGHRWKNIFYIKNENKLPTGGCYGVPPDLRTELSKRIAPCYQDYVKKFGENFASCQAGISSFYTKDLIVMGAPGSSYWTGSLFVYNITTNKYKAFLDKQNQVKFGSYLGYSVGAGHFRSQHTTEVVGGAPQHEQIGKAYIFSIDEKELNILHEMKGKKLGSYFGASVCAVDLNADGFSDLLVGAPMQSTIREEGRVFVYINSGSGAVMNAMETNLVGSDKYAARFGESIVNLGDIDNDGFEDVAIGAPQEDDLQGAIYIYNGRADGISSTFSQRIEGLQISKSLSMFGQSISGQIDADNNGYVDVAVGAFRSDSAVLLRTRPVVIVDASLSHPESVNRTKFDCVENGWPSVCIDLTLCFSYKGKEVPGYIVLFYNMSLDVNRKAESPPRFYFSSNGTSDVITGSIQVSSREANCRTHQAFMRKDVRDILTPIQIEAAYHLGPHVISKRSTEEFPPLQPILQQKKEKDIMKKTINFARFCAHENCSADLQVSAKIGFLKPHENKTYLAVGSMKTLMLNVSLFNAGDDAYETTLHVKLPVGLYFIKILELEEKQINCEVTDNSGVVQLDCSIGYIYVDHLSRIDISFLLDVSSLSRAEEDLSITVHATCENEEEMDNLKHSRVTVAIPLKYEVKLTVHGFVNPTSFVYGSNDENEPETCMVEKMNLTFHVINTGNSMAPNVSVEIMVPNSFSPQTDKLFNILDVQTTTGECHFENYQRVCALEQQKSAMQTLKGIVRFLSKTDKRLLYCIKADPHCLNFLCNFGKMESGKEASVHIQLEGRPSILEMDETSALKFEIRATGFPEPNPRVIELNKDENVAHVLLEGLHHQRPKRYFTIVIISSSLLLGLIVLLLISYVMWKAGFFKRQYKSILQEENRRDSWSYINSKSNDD
T2 sequence (P26010 20-798): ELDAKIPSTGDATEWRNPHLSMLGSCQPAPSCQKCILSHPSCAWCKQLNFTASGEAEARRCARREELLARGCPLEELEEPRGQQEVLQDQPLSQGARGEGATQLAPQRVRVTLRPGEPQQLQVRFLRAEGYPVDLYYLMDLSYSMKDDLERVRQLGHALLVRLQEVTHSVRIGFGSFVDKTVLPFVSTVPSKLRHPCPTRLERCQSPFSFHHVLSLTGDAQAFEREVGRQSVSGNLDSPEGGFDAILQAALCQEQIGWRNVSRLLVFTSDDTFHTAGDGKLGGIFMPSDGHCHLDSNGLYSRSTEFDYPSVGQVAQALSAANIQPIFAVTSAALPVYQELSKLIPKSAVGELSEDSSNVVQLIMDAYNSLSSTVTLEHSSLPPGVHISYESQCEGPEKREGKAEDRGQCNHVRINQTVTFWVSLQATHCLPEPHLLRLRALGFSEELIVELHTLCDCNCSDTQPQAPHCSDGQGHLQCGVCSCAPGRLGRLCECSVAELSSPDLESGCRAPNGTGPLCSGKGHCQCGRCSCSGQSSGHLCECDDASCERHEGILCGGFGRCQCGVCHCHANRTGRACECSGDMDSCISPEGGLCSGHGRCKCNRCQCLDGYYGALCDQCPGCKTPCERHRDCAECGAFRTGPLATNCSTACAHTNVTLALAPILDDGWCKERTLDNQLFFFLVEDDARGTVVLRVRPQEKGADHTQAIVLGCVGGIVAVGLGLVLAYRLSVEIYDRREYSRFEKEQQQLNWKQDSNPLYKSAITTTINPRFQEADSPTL
Kind of test: VCAM antagonistic activity (VCAM-1/α4β7 binding assay). The class given is cell-based. The settings on record: RPMI-8866 cells binding to VCAM-1; read-out: VCAM antagonistic activity (IC50) α4β7. An outline of the steps:
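Calcein-AM-labelled human B-lymphoma RPMI-8866 cells bound to plate-coated recombinant human VCAM-1 in HEPES/DMEM/0.1% BSA with 4 mM MnCl2, with compound, 30 min at room temperature. Unbound cells removed by shaking; bound-cell fluorescence (ex 485/em 535 nm) versus compound-free wells gave IC50, binned.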

Structures are written as SMILES.

T1 sequence (P05556 21-798, one chain of several): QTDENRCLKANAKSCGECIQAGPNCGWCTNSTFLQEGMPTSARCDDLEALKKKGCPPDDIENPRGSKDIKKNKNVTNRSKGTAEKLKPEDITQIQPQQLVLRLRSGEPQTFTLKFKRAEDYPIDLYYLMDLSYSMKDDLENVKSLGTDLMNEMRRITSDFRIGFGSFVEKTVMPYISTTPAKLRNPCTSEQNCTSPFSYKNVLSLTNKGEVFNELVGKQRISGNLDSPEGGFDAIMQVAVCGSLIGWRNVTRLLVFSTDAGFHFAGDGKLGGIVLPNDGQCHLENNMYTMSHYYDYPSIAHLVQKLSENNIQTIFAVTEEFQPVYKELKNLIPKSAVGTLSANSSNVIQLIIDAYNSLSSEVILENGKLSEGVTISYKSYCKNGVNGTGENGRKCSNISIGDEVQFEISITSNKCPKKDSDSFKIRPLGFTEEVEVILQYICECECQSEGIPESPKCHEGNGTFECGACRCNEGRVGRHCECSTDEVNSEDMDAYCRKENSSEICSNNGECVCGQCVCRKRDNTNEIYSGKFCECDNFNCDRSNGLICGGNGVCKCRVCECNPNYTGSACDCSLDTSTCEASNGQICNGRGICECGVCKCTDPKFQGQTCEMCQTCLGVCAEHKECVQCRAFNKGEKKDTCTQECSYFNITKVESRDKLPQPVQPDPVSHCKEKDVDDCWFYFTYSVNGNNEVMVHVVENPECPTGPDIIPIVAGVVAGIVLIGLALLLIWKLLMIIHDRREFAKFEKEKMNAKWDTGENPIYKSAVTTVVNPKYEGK

As usually defined, the IC50 is the midpoint of a concentration-inhibition curve. On to `CN(C)C(=O)C1(C(=O)N[C@@H](Cc2ccc(NC(=O)c3cc(Br)ccc3Cl)cc2)C(=O)O)CC1` [Example 87], for which the IC50 on integrin α4β1 lay within 100 to 2000 nM; on integrin α4β7 it was 20 to 100 nM.
Turning to `CN(C)C(=O)C1(C(=O)N[C@@H](Cc2ccc(NC(=O)c3cc(Br)ccc3Br)cc2)C(=O)O)CC1` [Example 88], the IC50 at integrin α4β1 and at integrin α4β7 was 100 to 2000 nM each time.
With `COc1ccc(Br)c(C(=O)Nc2ccc(C[C@H](NC(=O)C3(C(=O)N(C)C)CC3)C(=O)O)cc2)c1` [Example 89], the IC50 on integrin α4β1 and at integrin α4β7 was 100 to 2000 nM each time.
`CN(C)C(=O)C1(C(=O)N[C@@H](Cc2ccc(NC(=O)c3c(Cl)cccc3Cl)cc2)C(=O)O)CC1` [Example 90, N-[1-(N,N-dimethylaminocarbonyl)-cyclopropane-1-ylcarbonyl]-4-{[2,6-dichlorophenylcarbonyl]amino}-L-phenylalanine]: the IC50 at integrin α4β1 was 100 to 2000 nM; at integrin α4β7 it was 20 to 100 nM.
For `CCC(CC)(C(=O)N[C@@H](Cc1ccc(NC(=O)c2c(Cl)cccc2Cl)cc1)C(=O)O)C(=O)N1CCCC1` [Example 91, N-[2-(pyrrolidine-1-ylcarbonyl)-2-ethyl-butanoyl]-4-{[(2,6-dichlorophenyl)carbonyl]amino}-L-phenylalanine], in that order: below 20 nM and below 20 nM.
Turning to `CCC(CC)(C(=O)N[C@@H](Cc1ccc(NC(=O)c2c(F)cccc2C(F)(F)F)cc1)C(=O)O)C(=O)N1CCCC1` [Example 92, N-(2-pyrrolidine-1-ylcarbonyl-2-ethyl-butanoyl)-4-({[2-fluoro-6-(trifluoromethyl)phenyl]carbonyl}amino)-L-phenylalanine], the IC50 at integrin α4β1 was 20 to 100 nM; at integrin α4β7, below 20 nM.
Regarding `CCC(CC)(C(=O)N[C@@H](Cc1ccc(NC(=O)c2snnc2-c2ccccc2)cc1)C(=O)O)C(=O)N1CCCC1` [Example 93], the IC50 was 100 to 2000 nM on integrin α4β1 and below 20 nM on integrin α4β7.
Consider `CCC(CC)(C(=O)N[C@@H](Cc1ccc(NC(=O)c2nc(SC)ncc2Cl)cc1)C(=O)O)C(=O)N1CCCC1` [Example 94, N-[2-(pyrrolidine-1-ylcarbonyl)-2-ethyl-butanoyl]-4-({[5-chloro-2-(methylthio)pyrimidine-4-yl]carbonyl}amino)-L-phenylalanine], for which the half-inhibitory concentration (IC50) at integrin α4β1 was 20 to 100 nM; on integrin α4β7, below 20 nM.
Consider `CCC(CC)(C(=O)N[C@@H](Cc1ccc(NC(=O)c2cc(F)c(F)cc2Cl)cc1)C(=O)O)C(=O)N1CCCC1` [Example 95], for which the IC50 on integrin α4β1 is 20 to 100 nM; at integrin α4β7, below 20 nM.
For `CCC(CC)(C(=O)N[C@@H](Cc1ccc(NC(=O)c2cc(Br)ccc2Cl)cc1)C(=O)O)C(=O)N1CCCC1` [Example 96], in that order: 20 to 100 nM and below 20 nM.
In the case of `CCC(CC)(C(=O)N[C@@H](Cc1ccc(NC(=O)c2ccccc2[N+](=O)[O-])cc1)C(=O)O)C(=O)N1CCCC1` [Example 97], the IC50 on integrin α4β1 was 20 to 100 nM; on integrin α4β7, below 20 nM.
On to `CCC(CC)(C(=O)N[C@@H](Cc1ccc(NC(=O)c2cc(Br)ccc2Br)cc1)C(=O)O)C(=O)N1CCCC1` [Example 98], for which the figures for the IC50 on integrin α4β1 and at integrin α4β7 were 20 to 100 nM and below 20 nM, respectively.
For `CCC(CC)(C(=O)N[C@@H](Cc1ccc(NC(=O)c2cc(OC)ccc2Br)cc1)C(=O)O)C(=O)N1CCCC1` [Example 99], in that order: 20 to 100 nM and 20 to 100 nM.
For `CCC(CC)(C(=O)N[C@@H](Cc1ccc(-n2c(=O)c3ccccc3n(Cc3ccc4ccccc4c3)c2=O)cc1)C(=O)O)C(=O)N1CCCC1` [Example 100], in that order: 100 to 2000 nM and 20 to 100 nM.
For `CCC(CC)(C(=O)N[C@@H](Cc1ccc(-n2c(=O)c3ccccc3n(CC=Cc3ccccc3)c2=O)cc1)C(=O)O)C(=O)N1CCCC1` [Example 101], in that order: 100 to 2000 nM and 20 to 100 nM.
For the compound `C#CCn1c(=O)n(-c2ccc(C[C@H](NC(=O)C(CC)(CC)C(=O)N3CCCC3)C(=O)O)cc2)c(=O)c2ccccc21` [Example 102], the half-maximal inhibitory concentration (IC50) was 100 to 2000 nM at integrin α4β1 and below 20 nM on integrin α4β7.
Consider `CCC(CC)(C(=O)N[C@@H](Cc1ccc(-n2c(=O)c3ccccc3n(CC(=O)OC)c2=O)cc1)C(=O)O)C(=O)N1CCCC1` [Example 103], for which the values for the half-maximal inhibitory concentration (IC50) on integrin α4β1 and on integrin α4β7 were 100 to 2000 nM and 20 to 100 nM, respectively.
For `CCC(CC)(C(=O)N[C@@H](Cc1ccc(-c2c(OC)cccc2OC)cc1)C(=O)O)C(=O)N(C)C` [Example 104], in that order: 100 to 2000 nM and 20 to 100 nM.
For `COc1cccc(OC)c1-c1ccc(C[C@H](NC(=O)C(C)(C)C(=O)N(C)C)C(=O)O)cc1` [Example 105, N-[3-(dimethylamino)-2,2-dimethyl-3-oxopropanoyl]-4-(2,6-dimethoxyphenyl)-L-phenylalanine], in that order: 100 to 2000 nM and 20 to 100 nM.
`O=CN1CCN(C(=O)C2(C(=O)N[C@@H](Cc3ccc(OCc4c(Cl)cccc4Cl)cc3)C(=O)O)CCC2)CC1` [Example 463]: the IC50 on integrin α4β1 and on integrin α4β7 was 100 to 2000 nM each time.
On to `CCC(CC)(C(=O)N[C@@H](Cc1ccc(OCc2c(Cl)cccc2Cl)cc1)C(=O)O)C(=O)N1CCN(C(C)=O)CC1` [Example 464], for which the half-maximal inhibitory concentration (IC50) at integrin α4β1 fell in the range of 100 to 2000 nM; on integrin α4β7 it was 20 to 100 nM.
For `CCC(CC)(C(=O)NC(Cc1ccc(OCc2c(Cl)cccc2Cl)cc1)C(=O)O)C(=O)N1CC2CC1CN2C(C)=O` (stereo not drawn) [Example 466], in that order: 20 to 100 nM and below 20 nM.
For the compound `O=C(O)[C@H](Cc1ccc(OCc2c(Cl)cccc2Cl)cc1)NC(=O)C1(C(=O)N2CC[C@@H](O)C2)CCOCC1` [Example 467], the results for the IC50 on integrin α4β1 and at integrin α4β7 were 100 to 2000 nM and below 20 nM, respectively.
On to `CN(C)C(=O)C1(C(=O)N[C@@H](Cc2ccc(OCc3c(Cl)cccc3Cl)cc2)C(=O)O)CCOCC1` [Example 468], for which the IC50 on integrin α4β1 is 100 to 2000 nM; at integrin α4β7, below 20 nM.
For `CC1(C)CC2CC(C)(CN2C(=O)C2(C(=O)NC(Cc3ccc(OCc4c(Cl)cccc4Cl)cc3)C(=O)O)CCOCC2)C1` (stereo not drawn) [Example 472], in that order: 2000 to 10000 nM and 100 to 2000 nM.
Consider `CCC(CC)(C(=O)N[C@@H](Cc1ccc(NC(=O)c2nc(SC)ncc2Br)cc1)C(=O)O)C(=O)N1CCCC1` [Example 477], for which the IC50 is 20 to 100 nM on integrin α4β1 and below 20 nM at integrin α4β7.
On to `CCC(CC)(C(=O)N[C@@H](Cc1ccc(NC(=O)c2nc([S+](C)[O-])ncc2Cl)cc1)C(=O)O)C(=O)N1CCCC1` (stereo partly drawn) [Example 478, N-[2-(pyrrolidine-1-ylcarbonyl)-2-ethyl-butanoyl]-4-({[5-chloro-2-(methylsulfinyl)pyrimidine-4-yl]carbonyl}amino)-L-phenyl-alanine], for which the 50% inhibitory concentration (IC50) on integrin α4β1 was 20 to 100 nM; on integrin α4β7, below 20 nM.

For the origin of these results see patent publication US7160874B2, “Phenylalanine derivatives” (Ajinomoto Co., Inc., priority 1999, dated 2007).
